Experimental data reported in patent US6521594B1, “Method and composition for treating thrombosis” (La Jolla Cancer Research Foundation, priority 1990, dated 2003).
Read-outs that look alike come from different tables or passages of the source.

Columns and labels:
αIIbβ3 = target: T1, αIIbβ3 (Homo sapiens, UniProt P05106+P08514); test: αIIbβ3 (IIb/IIIa-fibrinogen) ELISA of Example XII; assay type: binding; conditions: comparator analogue 1
T1 construct: Platelet glycoprotein IIb/IIIa was purified from outdated human platelets; from tissue; host or cells: outdated human platelets
Procedure: Microtiter plates were coated overnight at room temperature with 110 μL of human fibrinogen (at 10 μg/mL) diluted in TBS. The plates were then washed three times with 200 μL per well of TBS+0.05% Tween-20. Fifty (50) μL of purified IIb/IIIa diluted in TBS with 20 mM octylglucoside, 2 mM MgCl2 and 2 mM CaCl2 were added to the wells. Fifty (50) μLs of peptide in the same buffer were then added in 10-fold serial dilutions and the plates were incubated for three hours at room temperature. The plates were washed three times with TBS-Tween and 100 μL of rabbit anti-IIb/IIIa were added to each well. After a two hour room temperature incubation, the plates were washed and the remaining steps done as described for the FnR ELISA.
The peptides described in this Example were synthesized according to the methods of Examples I and XI. Selectivity and potency were measured according to the methods of Examples II through XI. The peptide identification numbers used in this Example are consistent and relevant to this Example only. Some of the peptides are identified by other nomenclature elsewhere in this document.

platelets [1] = test: Ex vivo platelet aggregation in dogs (Example XII.H); design: species or system dog; dose or concentration left out as unconfirmed
Procedure: More importantly, several peptides in FIG. 23 were administered to dogs (according to the method of Example VII) at doses capable of inhibiting ex vivo platelet aggregation by >95%.
The bleeding time indicated in the parentheses was measured at a five-fold higher concentration of peptide. […]

platelets [2] = target: T2, platelets (Homo sapiens, UniProt P05106+P08514); assay type: cell-based; conditions: ADP 10 μm; citrated PRP; read-out: ADP-Stimulated Aggregation (IC50)
Procedure: Briefly, the change in light transmission was measured through a stirred suspension of platelets in an aggregometer (Model 400 VS, Chrono-Log, Havertown, Pa., USA). […] In studies using thrombin, the PRP was gel-filtered on Sepharose 2B in divalent ion-free Tyrode's solution containing 2% BSA. For all studies, the reference standard was platelet-poor plasma, which was obtained by centrifuging PRP at 1000×g for 5 min.
All aggregation studies were performed at 37° C. with a constantly stirred suspension of 3×10^8 platelets/ml. (Platelet count was determined with the aid of a hemacytometer.) Peptides and stimulants were added to these suspensions in 1% dilutions. The PRP and gel-filtered platelets were used within three hours from the time of blood collection.
Peptide anti-aggregation potencies were determined from dose-responsive curves for the inhibition of the maximum aggregation responses stimulated by physiologic doses of ADP (10 μm) and thrombin (2 U/ml).

platelets [3] = target: T2, platelets; test: Human platelet aggregation in PRP (modified assay, Table II); assay type: cell-based; conditions: citrate, collagen, U46619 or ADP
Procedure: In an independent study, a slightly modified aggregation assay was used. Platelet aggregation assays were performed in human platelet rich plasma (PRP). […] The blood was centrifuged at 160×g for 10 minutes at 22° C. and allowed to stand for 5 minutes after which the PRP was decanted. Platelet poor plasma (PPP) was isolated from the remaining blood after centrifugation at 2000×g for 25 minutes. The platelet count of the PRP was diluted to about 300,000 platelets per microliter with PPP.
A 225 μl aliquot of PRP plus 25 μl of either a dilution of the test inhibitor sample or a control (PBS) was incubated for 5 minutes in a Chrono-log Whole Blood Aggregometer at 37° C.

platelets [4] = test: Ex vivo platelet aggregation in the canine coronary thrombosis study; design: species or system dog
Procedure: For all ex vivo studies (see FIG. 3), control aggregation values were standardized to the percentages of light transmission observed in PRP and PPP samples (0% and 100%, respectively).
(§1) Animals were randomly assigned to two treatment groups: vehicle control (i.e., normal saline) or RGD peptides at various concentrations. Peptides were administered intra-atrially in both bolus and continuous injections. Each bolus injection consisted of 0.5 to 10 mg/kg and was administered 15 minutes before application of the current. A continuous infusion of the same peptide was then started immediately after completion of this initial injection. Animals received a 25 μg/kg/min to 200 μg/kg/min infusion. The anti-thrombotic effects of the peptides were monitored until 30 minutes after the occurrence of a persistent, occlusive thrombus or five hours after the initiation of electrical stimulation (whichever resulted first). If an occlusive thrombus had not developed within four hours after the initiation of current, the peptide infusion was stopped.
(§2) Platelet counts and ex vivo aggregation studies were performed one hour before and 1, 3, and 5 hours after application of anodal direct current.
Platelet aggregation was also determined ex vivo at one, three, and five hours after current application. For these studies, arachidonic acid, or collagen was again used to stimulate the platelets.

coronary thrombosis = test: Electrically induced canine coronary thrombosis (time to full occlusion); assay type: in vivo, dog
Procedure: Male mongrel dogs weighing 14 to 20 kg were selected based on proper aggregation of their platelets in response to arachidonic acid, collagen, and adenosine disphosphate (ADP) and based on similar weights and hemodynamic properties.
Before surgery, the animals were anesthetized with sodium pentobarbital (30 mg/kg, i.v.) and then intubated and ventilated on room air with positive pressure using a respirator (Harvard Apparatus, S. Natick, Mass.) at a volume of 30 ml/kg and a frequency of 12 breaths/min. Surgery, performed under aseptic conditions, was begun with the placement of cannulae into the left carotid artery and jugular vein for monitoring arterial blood pressure (Statham P23 pressure transducer, Gould, Inc., Cardiovascular Products, Oxnard, Calif.) and administering intravenous fluids.
The heart was exposed via a left thoracotomy through the 5th intercostal space. A 2-cm segment of the left circumflex coronary artery (LCCA) was isolated from surrounding tissue by blunt dissection. […] The intra-coronary electrode was constructed by attaching a 25-gauge hypodermic needle tip to a 30-gauge Teflon-insulated silver-coated copper wire. The mechanical occluder was constructed of stainless steel in a C shape with a Teflon screw (2 mm diameter) on top. It was adjusted to control vessel circumference and decrease the reactive hyperemic flow due to a 10-sec (full) occlusion by 50-70% without affecting basal coronary blood flow (FIG. 1). A monopolar epicardial electrode was sutured to the surface of the ventricle in the region of LCCA distribution to monitor ischemic changes in the electrocardiogram (ECG). The left atrium was cannulated with polythylene tubing for administration of the peptide. Continuous recordings of blood pressure, limb lead II ECG, epicardial electrogram, and mean and phasic LCCA blood flow were obtained on a Model 7 polygraph (Grass Instrument Co., Quincy, Mass.).
One hour after the completion of surgery, a 100 micro-amp continuous anodal direct current delivered from a 9 volt nickel-cadmium battery was applied to the intimal surface of the LCCA. The anode of the battery was in series with a 250,000 ohm potentiometer and the intraluminal coronary artery electrode. The electric circuit was completed by placing the cathode in a subcutaneous site. Electrical stimulation was applied for three hours. At the conclusion of each experiment, the heart was fibrillated electrically and quickly removed, and the LCCA was dissected free as far as possible to verify the position of the implanted anodal electrode.
as §1
Coronary thrombosis was quantified as the time to full occlusion. The effects of the various peptide treatments on coronary thrombosis is illustrated in FIG. 4.

canine platelets = test: Canine platelet aggregation in vitro (ADP, arachidonic acid, collagen); assay type: cell-based, dog
Procedure: as §2
Epinephrine (550 nM) was used to prime platelets before stimulation with arachidonic acid. Peptides were added in 1% dilutions to the PRP solutions.

[5] = target: T3, vitronectin receptor (Vn-R) (Homo sapiens, UniProt P05106+P06756); test: Vitronectin receptor binding (ELISA or liposome attachment assay); conditions: read-out: VnR Binding (IC50), purified receptor
T3 construct: from tissue; host or cells: human placenta
Procedure: Receptor and ligand purifications were performed according to the methods in this Example or those in Example XI.C. Receptors were purified according to the procedures of Pytela et al. (Methods Enzymol. 144:475 (1987)), incorporated herein by reference. […] Except where stated, all procedures were carried out at 4° C. The peptide column was washed with three volumes of Tris-buffered saline (TBS) containing 1 mM Ca^2+ and 25 mM OG and then with TBS containing 1 mM Ca^2+ and 25 mM octyl thioglucoside (OTG) at room temperature. […] Finally, Ca^2+ and Mg^+2 were added to eluted fractions to achieve final concentrations of 1 mM for both ions.
Maxisorp microtiter plates were coated with 2 μg/ml human vitronectin dissolved in PBS (50 ml/well) and stored overnight at 4° C. The plates were washed two times with PBS-0.05% Tween-20 (wash buffer) and blocked by incubating with about 150 μl/well of assay buffer (1%, BSA (RIA grade or better) in 50 mM Tris-HCl, 100 mM NaCl, 1 mM MgCl2, CaCl2, MnCl2 pH 7.4) for 60 minutes. […] The plates were read at 492-405 nm and the data analyzed by four-parameters fit. […]
In parallel studies with the platelet aggregation experiments (described in Example V), the apparent affinities of peptides for GP IIb/IIIa, fibronectin and vitronectin receptors were determined. […]
Those for VnR and GP IIb/IIIa were determined either by ELISA or liposome attachment assay (Example IV).

[6] = tested on: prosthetic arterial graft thrombosis; test: Platelet and fibrinogen uptake by Gore-Tex arterial grafts in ex vivo shunt; design: species or system baboon
Procedure: Adult male baboons (weighing 16 to 25 kg) were used in these studies. These were sedated with ketamine hydrochloride (200 to 250 mg intramuscular injection) and maintained under anesthesia with sodium pentobarbital (50 to 75 mg administered intravenously as necessary).
Twenty-four hours before the ex vivo shunt was established, platelets were isolated from 500 ml of blood from the test animal and labelled with ca. 500 microcuries of indium-111 oxine (Medi+Physics, Emeryville, Calif.), which irreversibly and specifically binds to platelets with an efficiency of 50%. Immediately after labelling, these platelets were then injected back into the animal and allowed to circulate for 24 hours. Immediately before the start of the study, fibrinogen that had been isolated from the animal and labelled with iodine-131 (DuPont Nuclear, Boston, Mass.) was also injected back into the animal. Also at this time, baseline determinations of the clotting and template bleeding times were made, and blood samples were drawn for hematology studies.
To establish the ex vivo shunt, the femoral artery and vein were percutaneously cannulated with introducer catheters (KMA Inc., Mansfield, Mass.). The catheters were then connected to medical-grade, heparin-coated silastic tubing (2.59 mm internal diameter, (Extracorporeal Medical Specialties, Inc., King of Prussia, Pa.). […] Finally, a 5 cm-long test segment of a 4 mm (internal diameter) vascular graft was inserted at the apex of the circuit. The graft used in these studies was Gore-tex (expanded polytetrafluoroethylene, (W. L. Gore and Associates, Inc., Flagstaff, Ariz.). An electromagnetic flow probe was then inserted into the tubing circuit to measure blood flow, which was maintained at 100 ml/min. by varying the resistance imported by a partially occluding screw clamp that was distal to the probe. Finally, a 5 cm-long test segment of a 4 mm (internal diameter) vascular graft was inserted at the apex of the circuit. The graft used in these studies was Gore-tex (expanded polytetrafluoroethylene, W. L. Gore and Associates, Inc., Flagstaff, Ariz.).
Platelet deposition onto the grafts was monitored by dynamic scanning with a gamma camera (Sigma 400, Ohio Nuclear, Inc., Sohon, Ohio), which detects the gamma radiation emitted by the ^111indium-labelled platelets. Once the circuit was in place, the animal was placed under this camera, and blood flow was initiated. Scans were then taken at the rate of one frame per two minutes for two hours. The data from these scans were collected on a dedicated Digital MDA computer (Maynard, Mass.). […]

platelets [7] = test: Ex vivo platelet aggregation on PRP of baboon; assay type: in vivo; conditions: animal 2; ADP 10 μm; 0, 1 and 2 hours
Procedure: At one- and two-hour time points, template bleeding times were measured, and blood samples were drawn to assess the hematology aggregation studies. Platelet aggregation studies were performed as described in Example V using ADP as the stimulus.
In addition, platelet aggregation studies were conducted on PRP derived from the second animal. Whole blood was drawn at three time points (0, 1 and 2 hours) of both control and experimental shunts.

[8] = 10 mg/kg injection, 1, 3 and 5 h
[9] = animal 1, two bolus IV injections of 10 mg/kg
[10] = animal 2, 10 mg/kg bolus IV + 10 mg/kg/hr infusion for 2 h

T2 sequence (P08514 32-1039): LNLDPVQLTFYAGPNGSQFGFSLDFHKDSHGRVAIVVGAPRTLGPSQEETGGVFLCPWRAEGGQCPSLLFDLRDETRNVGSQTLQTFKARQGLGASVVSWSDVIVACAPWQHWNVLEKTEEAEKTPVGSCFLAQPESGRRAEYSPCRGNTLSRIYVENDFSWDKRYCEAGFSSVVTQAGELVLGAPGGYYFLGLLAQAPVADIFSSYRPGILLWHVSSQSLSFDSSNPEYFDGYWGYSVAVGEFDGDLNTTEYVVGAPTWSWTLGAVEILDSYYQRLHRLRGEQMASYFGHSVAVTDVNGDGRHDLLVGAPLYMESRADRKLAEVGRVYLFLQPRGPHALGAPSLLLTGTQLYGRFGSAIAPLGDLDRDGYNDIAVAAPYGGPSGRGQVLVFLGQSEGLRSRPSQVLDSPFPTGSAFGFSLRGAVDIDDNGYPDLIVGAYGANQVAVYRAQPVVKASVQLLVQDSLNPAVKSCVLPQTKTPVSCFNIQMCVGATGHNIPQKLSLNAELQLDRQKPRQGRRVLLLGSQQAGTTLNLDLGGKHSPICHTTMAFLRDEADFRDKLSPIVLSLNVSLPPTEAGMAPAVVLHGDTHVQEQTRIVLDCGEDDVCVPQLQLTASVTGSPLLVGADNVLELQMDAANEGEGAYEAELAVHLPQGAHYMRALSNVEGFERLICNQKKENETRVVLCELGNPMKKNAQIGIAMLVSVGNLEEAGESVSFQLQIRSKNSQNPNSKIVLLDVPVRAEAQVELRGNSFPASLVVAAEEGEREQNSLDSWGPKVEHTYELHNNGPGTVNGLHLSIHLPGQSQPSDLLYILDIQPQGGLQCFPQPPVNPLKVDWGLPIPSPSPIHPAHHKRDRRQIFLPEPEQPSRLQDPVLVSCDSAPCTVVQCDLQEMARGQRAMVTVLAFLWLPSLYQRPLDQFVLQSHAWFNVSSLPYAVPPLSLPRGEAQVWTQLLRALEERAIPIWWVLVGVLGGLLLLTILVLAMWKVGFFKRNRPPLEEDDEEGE
T2 sequence (P05106 27-788): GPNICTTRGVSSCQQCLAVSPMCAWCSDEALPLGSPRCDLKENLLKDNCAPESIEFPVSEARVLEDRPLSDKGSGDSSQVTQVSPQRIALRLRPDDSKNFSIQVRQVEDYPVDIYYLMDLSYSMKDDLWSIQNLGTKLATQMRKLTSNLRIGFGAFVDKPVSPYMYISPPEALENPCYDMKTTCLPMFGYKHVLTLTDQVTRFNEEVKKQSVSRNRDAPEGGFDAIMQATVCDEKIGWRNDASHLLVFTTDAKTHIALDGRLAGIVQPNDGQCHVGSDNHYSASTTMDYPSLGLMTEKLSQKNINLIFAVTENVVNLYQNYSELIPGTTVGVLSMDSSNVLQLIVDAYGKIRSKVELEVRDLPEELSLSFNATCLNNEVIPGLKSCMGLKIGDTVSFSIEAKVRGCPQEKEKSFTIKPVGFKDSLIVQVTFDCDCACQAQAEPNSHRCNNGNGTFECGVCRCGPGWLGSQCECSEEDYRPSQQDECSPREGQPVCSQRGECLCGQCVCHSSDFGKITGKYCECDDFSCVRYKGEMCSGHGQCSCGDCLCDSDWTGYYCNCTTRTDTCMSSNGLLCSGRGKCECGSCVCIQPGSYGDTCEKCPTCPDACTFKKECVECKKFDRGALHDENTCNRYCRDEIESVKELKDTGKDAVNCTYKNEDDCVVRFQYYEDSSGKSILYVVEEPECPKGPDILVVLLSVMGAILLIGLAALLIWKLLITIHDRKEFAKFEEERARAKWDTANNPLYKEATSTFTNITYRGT
T3 sequence (P06756 31-889 limits assumed): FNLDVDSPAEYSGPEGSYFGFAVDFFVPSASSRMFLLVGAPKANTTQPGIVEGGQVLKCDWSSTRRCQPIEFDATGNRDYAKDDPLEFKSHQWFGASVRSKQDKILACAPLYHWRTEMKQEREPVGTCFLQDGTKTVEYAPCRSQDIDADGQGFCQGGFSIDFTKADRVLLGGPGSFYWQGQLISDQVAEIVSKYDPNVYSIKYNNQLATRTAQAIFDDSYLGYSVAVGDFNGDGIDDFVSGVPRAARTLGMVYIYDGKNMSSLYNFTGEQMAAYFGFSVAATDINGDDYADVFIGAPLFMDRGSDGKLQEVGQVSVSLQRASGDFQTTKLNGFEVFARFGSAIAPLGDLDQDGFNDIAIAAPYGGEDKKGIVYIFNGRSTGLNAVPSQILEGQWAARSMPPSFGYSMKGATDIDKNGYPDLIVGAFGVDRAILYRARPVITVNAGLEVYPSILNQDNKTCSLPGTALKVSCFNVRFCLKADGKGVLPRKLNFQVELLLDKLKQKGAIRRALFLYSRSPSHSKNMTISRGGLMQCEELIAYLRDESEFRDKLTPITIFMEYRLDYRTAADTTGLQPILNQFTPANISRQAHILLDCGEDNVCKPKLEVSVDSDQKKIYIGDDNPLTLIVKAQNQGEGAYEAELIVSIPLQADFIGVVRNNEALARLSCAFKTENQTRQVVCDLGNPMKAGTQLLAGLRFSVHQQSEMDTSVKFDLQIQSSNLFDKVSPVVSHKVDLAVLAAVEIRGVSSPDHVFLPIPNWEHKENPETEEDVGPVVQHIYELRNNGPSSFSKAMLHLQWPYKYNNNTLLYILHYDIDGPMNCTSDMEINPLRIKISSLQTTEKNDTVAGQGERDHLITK
T3 sequence (P06756 891-1048 limits assumed): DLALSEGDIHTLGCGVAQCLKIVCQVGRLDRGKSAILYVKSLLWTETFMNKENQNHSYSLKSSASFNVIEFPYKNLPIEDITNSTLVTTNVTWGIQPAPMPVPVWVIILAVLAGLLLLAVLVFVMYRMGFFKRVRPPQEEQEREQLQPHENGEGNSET
T3 sequence (P05106 27-788): as the sequence (P05106 27-788) above
T1 sequence (P08514 32-887 limits assumed): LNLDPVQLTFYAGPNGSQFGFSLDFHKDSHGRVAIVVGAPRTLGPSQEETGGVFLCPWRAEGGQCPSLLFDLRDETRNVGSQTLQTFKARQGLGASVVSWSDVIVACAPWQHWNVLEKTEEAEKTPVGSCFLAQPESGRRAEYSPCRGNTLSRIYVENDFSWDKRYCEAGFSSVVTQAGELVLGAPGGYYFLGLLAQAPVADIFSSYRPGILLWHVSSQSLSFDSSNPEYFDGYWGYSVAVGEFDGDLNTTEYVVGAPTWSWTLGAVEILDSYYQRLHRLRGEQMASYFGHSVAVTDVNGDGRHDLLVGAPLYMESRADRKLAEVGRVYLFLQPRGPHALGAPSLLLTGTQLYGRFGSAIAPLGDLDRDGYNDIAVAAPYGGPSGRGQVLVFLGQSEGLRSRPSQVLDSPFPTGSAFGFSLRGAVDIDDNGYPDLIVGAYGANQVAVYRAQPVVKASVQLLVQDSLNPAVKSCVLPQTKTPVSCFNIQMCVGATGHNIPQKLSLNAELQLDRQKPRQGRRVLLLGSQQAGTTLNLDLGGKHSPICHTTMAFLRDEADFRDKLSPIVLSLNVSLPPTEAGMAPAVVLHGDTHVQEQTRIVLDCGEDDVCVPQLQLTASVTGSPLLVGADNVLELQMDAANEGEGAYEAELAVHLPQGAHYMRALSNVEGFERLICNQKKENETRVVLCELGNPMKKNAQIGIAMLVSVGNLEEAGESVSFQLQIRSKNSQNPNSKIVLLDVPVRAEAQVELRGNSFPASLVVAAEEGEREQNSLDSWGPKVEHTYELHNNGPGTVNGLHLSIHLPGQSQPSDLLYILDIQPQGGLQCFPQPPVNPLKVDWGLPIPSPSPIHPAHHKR
T1 sequence (P08514 891-1039 partner limits assumed): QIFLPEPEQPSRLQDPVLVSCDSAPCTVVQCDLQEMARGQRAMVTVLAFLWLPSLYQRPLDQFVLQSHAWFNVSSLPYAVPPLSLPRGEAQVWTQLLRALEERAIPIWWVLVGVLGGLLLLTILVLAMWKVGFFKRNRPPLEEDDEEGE
T1 sequence (P05106 27-788): as the sequence (P05106 27-788) above

G(dPen)GHRGDLRCA was tested, and the “fold more potent than analogue 1 in the αIIbβ3 assay” value (αIIbβ3) was “approximately 2 fold”.
Ac-CNPRGD(Y-OMe)RCNH2 [8X] was tested, and the “inhibition of ex vivo platelet aggregation” value (platelets [1]) was > 95%.
R(Pen)GHRGDWRCR [4Q] was tested, and the IC50 (platelets [2]) was 1300 nM, the IC50 (platelets [3]) was 3.3 µM and the “ex vivo platelet activation by collagen” value (platelets [4]; 5 mg/kg injection) was “near-maximal inhibition”. For the same substance, the “ex vivo platelet response to ADP and AA” value (platelets [4]; 5 mg/kg injection, all three time points) was “completely unresponsive”, the “ex vivo platelet aggregation by ADP, AA and collagen” value (platelets [4]; 10 mg/kg injection) was “prevented platelet aggregation by all three stimuli at one- and three-hour time points” and the “coronary thrombosis: time to full occlusion” value (“coronary thrombosis: time” below) (coronary thrombosis; 5 mg/kg) was “significantly prolonged the time to occlusion”. The “thrombus formation in animals with platelet levels one-third of normal” value (coronary thrombosis; 5 mg/kg) was “able to prevent thrombus formation” and the “coronary thrombosis: time” value (coronary thrombosis; 10 mg/kg) was “completely prevented occlusion”.
In the case of GRGDSP [reference compound], the IC50 (canine platelets; all three responses (ADP, arachidonic acid, collagen), read-out: concentration inhibiting canine platelet aggregation by 50%) is reported as ~130 µM.
G(Pen)IARGDWNCA was tested, and the IC50 [5] was 40 nM.
For G(Pen)GHRGDLRCA [2G], the IC50 (canine platelets; 10 μm ADP, […] arachidonic acid or 9.6 micrograms/ml collagen, canine PRP, read-out: IC50 against canine platelet aggregation) was 15 to 30 µM, the “effect on ADP-stimulated ex vivo aggregation” value (platelets [4]; [8]) was “substantially inhibited” and the “inhibition of AA-stimulated ex vivo aggregation relative to control” value (platelets [4]; [8]) was 43-70%. For the same substance, the “inhibition of collagen-stimulated ex vivo aggregation relative to control” value (platelets [4]; [8]) was 12-50%, the “coronary thrombosis: time” value (coronary thrombosis; 10 mg/kg) was “did not significantly influence” and the “reduction in 111In-platelet uptake by graft” value [6, 9] was 90%. For the same substance, the “reduction in 131I-fibrinogen uptake by graft” value [6, 9] was 79%, the “reduction in labelled fibrinogen uptake by graft” value [6, 10] was 78% and the “reduction in labelled platelet uptake by graft” value [6, 10] was 84%. The “ex vivo platelet aggregation response” value (platelets [7]) was “completely unresponsive to the peptide treatment”.
